Values after ≈ are worked out from the molar mass of the structure shown.
Tested on: 30 strains of coliform bacilli collected from the living body of humans
Experiment: MIC50/MIC70 against 30 strains of coliform bacilli
Format: cell-based
Details: 70% of the 30 strains; for MIC70 of ampicillin combined with present compound / MIC70 of cephalexin combined with present compound / MIC70 of mecillinam combined with present compound / MIC70 of piperacillin combined with present compound: present compound 10 μg/ml
Description: The MIC of ampicillin as combined with the present compound (10 μg/ml) was measured against the same bacteria. In the method, the bacteria cultivated in Mueller Hinton Broth (product of DIFCO) and diluted to 10^7 CFU/ml were inoculated into the same medium containing ampicillin and the present compound in a specific concentration, and incubated at 37° C. for 20 hours. […] The bacteria as used in the test were those capable of producing β-lactamase, among which the bacteria marked * in the table are those collected from the living body of human hosts and the others are a stock culture.
(2) Effects by antibiotics as combined with the present compound
The compounds of the present invention, ampicillin, mecillinam, piperacillin and cephalexin, each singly used, were also tested for minimal inhibitory concentration against 30 strains of coliform bacilli collected from the living body of humans. The MIC of each antibiotic as combined with the present compound (10 μg/ml) was likewise measured. Table 3 to 6 indicate the results in which MIC50 and MIC70 indicate the minimal inhibitory concentration for inhibiting the growth of 50% and 70% respectively of the strains. The MICs of the present compounds singly used were all more than 25 μg/ml.

## CC1(C)S[C@@H]2[C@H](NC(=O)[C@H](N)c3ccccc3)C(=O)N2[C@H]1C(=O)O [Ampicillin, ampicillin, reference compound]
  MIC70, ampicillin singly used: 400 µg/mL (≈ 1140 µM)

## CCOC(=O)c1cn(C[C@@]2(C)[C@H](C(=O)O)N3C(=O)C[C@H]3S2(=O)=O)nn1 [Compound 7, sodium 2β-(4-ethoxycarbonyl-1,2,3-triazol-1-yl)methyl-2α-methylpenam-3α-carboxylate-1,1-dioxide]
  MIC70 of ampicillin combined with present compound: 50 µg/mL
  MIC70 of cephalexin combined with present compound: 100 µg/mL
  MIC70 of mecillinam combined with present compound: 0.39 µg/mL
  MIC70 of piperacillin combined with present compound: 6.25 µg/mL

## CCOC(=O)c1cnnn1C[C@@]1(C)[C@H](C(=O)O)N2C(=O)C[C@H]2S1(=O)=O [Compound 11, sodium 2β-(5-ethoxycarbonyl-1,2,3-triazol-1-yl)methyl-2α-methylpenam-3α-carboxylate-1,1-dioxide]
  MIC70 of ampicillin combined with present compound: 100 µg/mL
  MIC70 of cephalexin combined with present compound: 100 µg/mL
  MIC70 of mecillinam combined with present compound: 0.39 µg/mL
  MIC70 of piperacillin combined with present compound: 25 µg/mL

## C[C@]1(Cn2cc(C(=O)O)nn2)[C@H](C(=O)O)N2C(=O)C[C@H]2S1(=O)=O [Compound 16, dipotassium 2β-(4-carboxy-1,2,3-triazol-1-yl)methyl-2α-methylpenam-3α-carboxylate-1,1-dioxide]
  MIC70 of ampicillin combined with present compound: 6.25 µg/mL
  MIC70 of cephalexin combined with present compound: 25 µg/mL
  MIC70 of mecillinam combined with present compound: 0.1 µg/mL
  MIC70 of piperacillin combined with present compound: 3.13 µg/mL

## C[C@]1(Cn2nncc2C(=O)O)[C@H](C(=O)O)N2C(=O)C[C@H]2S1(=O)=O [Compound 17, dipotassium 2β-(5-carboxy-1,2,3-triazol-1-yl)methyl-2α-methylpenam-3α-carboxylate-1,1-dioxide]
  MIC70 of ampicillin combined with present compound: 100 µg/mL
  MIC70 of mecillinam combined with present compound: 0.39 µg/mL
  MIC70 of piperacillin combined with present compound: 50 µg/mL

## C[C@]1(Cn2ccnn2)[C@H](C(=O)O)N2C(=O)C[C@H]2S1(=O)=O [Compound 22, sodium 2α-methyl-2β-(1,2,3-triazol-1-yl)methylpenam-3α-carboxylate-1,1-dioxide]
  MIC70 of ampicillin combined with present compound: 6.25 µg/mL
  MIC70 of cephalexin combined with present compound: 50 µg/mL
  MIC70 of mecillinam combined with present compound: 0.2 µg/mL
  MIC70 of piperacillin combined with present compound: 1.56 µg/mL

Reference: patent US4562073A, “Penicillin derivatives” (Taiho Pharmaceutical Company Limited, priority 1982, dated 1985)
